Experimental data reported in PMC5656836, “Distinct activation mechanisms trigger the trypanocidal activity of DNA damaging prodrugs” (Molecular Microbiology, 2017).
Like-named read-outs stand apart in the source and are kept apart here.

Legend:
[1] = test system: bloodstream form T. brucei; test: Growth inhibition of wild type / control bloodstream form T. brucei (resazurin); type: cell-based
[2] = test system: T. cruzi epimastigotes; test: Growth inhibition of T. cruzi epimastigotes (resazurin); type: cell-based; details: for EC50: read-out: T. cruzi EC50
[3] = test system: L. major promastigotes; test: Growth inhibition of L. major promastigotes (resazurin); type: cell-based; details: for EC50: Leishmania major, 144 h, read-out: L. major EC50
[4] = test system: RH1^RC1 T. brucei; test: microbe, parasite or virus in culture; type: cell-based; details: for EC50: Trypanosoma brucei, read-out: EC50 RH1^RC1;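 for ratio (fold difference in EC50 between RH1^RC1 and wild type): resistant clone selected by stepwise exposure to the aziridinyl benzoquinone prodrug in culture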
[5] = test system: T. brucei over expressing TbNTR (Tbntr++); test: microbe, parasite or virus in culture; type: cell-based; details: for EC50: Trypanosoma brucei, read-out: EC50 Tbntr++
[6] = test system: T. brucei Tbsnm1 null mutants (ΔTbsnm1); test: microbe, parasite or virus in culture; type: cell-based; details: for EC50: Trypanosoma brucei, read-out: EC50 ΔTbsnm1
[7] = test system: T. brucei over expressing TbCPR2 (Tbcpr2++); test: microbe, parasite or virus in culture; type: cell-based; details: for EC50: Trypanosoma brucei, read-out: EC50 Tbcpr2++
[8] = test system: mouse peritoneal macrophages; test: Toxicity to mouse peritoneal macrophages (cell counts, Giemsa); type: cell-based, BALB/c mice; details: Peritoneal macrophage, 120 h, read-out: EC50 towards mouse peritoneal macrophages
[9] = test system: differentiated THP‐1 cells; test: Mammalian inhibition assay, differentiated THP-1 cells; type: cell-based; details: Homo sapiens, THP-1, 72 h, read-out: THP‐1 EC50
[10] = test system: ΔTbsnm1 Tbntr++ T. brucei; type: cell-based
[11] = test system: Wild type T. brucei; type: cell-based
[12] = Trypanosoma brucei, 72 h, read-out: T. brucei EC50
[13] = Trypanosoma brucei, read-out: EC50 Wild type
[14] = Trypanosoma brucei, Table 3, BSF T. brucei wild type, read-out: EC50 Wild type
[15] = Trypanosoma brucei, read-out: EC50 Control

**Q.** Which results are given for `CCC(=O)NC1=C(N2CC2C)C(=O)C(NC(=O)CC)=C(N2CC2C)C1=O` (stereo not drawn) [ABQ33]?
**A.** EC50 [1, 12]: > 10 µM; EC50 ([2]; Trypanosoma cruzi, 336 h): > 10 µM; EC50 [3]: 8.157 ± 0.08 µM

**Q.** Which EC50 [1, 12] does the source give for `CCOC(=O)NC1=C(N2CC2)C(=O)C(NC(=O)OCC)=C(N2CC2)C1=O` [AZQ] here?
**A.** The EC50 was 8.23 ± 0.272 µM.

**Q.** And the EC50 ([2]; Trypanosoma cruzi, 336 h)?
**A.** The EC50 was 6 ± 0.283 µM.

**Q.** What about the EC50 [3] of the same compound?
**A.** The EC50 was over 10 µM.

**Q.** What does the source list for `NC(=O)c1cc(N2CC2)c([N+](=O)[O-])cc1[N+](=O)[O-]` [CB1954, reference compound]?
**A.** EC50 [1, 13]: 2.16 ± 0.125 µM; EC50 [4]: 13.1 ± 0.972 µM

**Q.** Which results are given for `NCCCC(N)(C(=O)O)C(F)F` (stereo not drawn) [DFMO, difluoromethylornithine, reference compound]?
**A.** EC50 [1, 14]: 16.8 ± 2.69 µM; EC50 [1, 15]: 27.5 ± 0.108 µM; Fold difference in EC50 Tbntr++ relative to control [5]: 30720 ± 1330 (1.12); EC50 [5]: 30.7 µM; ratio (fold difference in EC50 between RH1^RC1 and wild type) [4]: 1.3; EC50 [4]: 22.2 ± 0.383 µM; Ratio of EC50 values ΔTbsnm1 / control [6]: 0.99; Susceptibility of Tbsnm1 null mutants relative to wild type / control (fold more susceptible) [6]: no significant difference; EC50 [6]: 27.1 ± 0.85 µM; Fold difference in EC50 Tbcpr2++ relative to control [7]: 33250 ± 5123 (1.21); EC50 [7]: 33.2 µM

**Q.** How did the “T. brucei SI” value [1] turn out when `O=C1C=C(N2CC2)C(=O)C=C1N1CC1` [DZQ] was run?
**A.** The value was 1.

**Q.** What about the EC50 [1, 12] of the same compound?
**A.** The EC50 was 0.272 ± 0.001 µM.

**Q.** And the “Fold difference in EC50 Tbntr++ relative to control” value [5]?
**A.** Its value is 90 ± 3 (0.28 ).

**Q.** And the EC50 [5]?
**A.** The EC50 was 0.09 µM.

**Q.** And the EC50 [8]?
**A.** The EC50 was 0.255 µM.

**Q.** And the “Ratio of EC50 values ΔTbsnm1 / control” value [6]?
**A.** Its value is 0.27.

**Q.** And the EC50 [6]?
**A.** Its EC50 is 0.043 ± 0.002 µM.

**Q.** What about the “T. cruzi SI” value [2] of the same compound?
**A.** The value was 36.

**Q.** What about the EC50 ([2]; Trypanosoma cruzi, 336 h) of the same compound?
**A.** Its EC50 is under 0.01 µM.

**Q.** And the EC50 [2]?
**A.** Its EC50 is 0.005 ± 0.001 µM.

**Q.** And the “L. major EC50” value [3]?
**A.** The value was “high potency”.

**Q.** And the “L. major SI” value [3]?
**A.** The value was 3.

**Q.** What about the EC50 [3] of the same compound?
**A.** The EC50 was 0.06 ± 0.001 µM.

**Q.** What about the EC50 [9] of the same compound?
**A.** The EC50 was 0.181 ± 0.005 µM.

**Q.** What does the source list for `O=NN(CCCl)C(=O)NC1CCCCC1` [Lomustine]?
**A.** EC50 [1, 14]: 16.6 ± 0.443 µM; ratio (fold difference in EC50 between RH1^RC1 and wild type) [4]: 0.9; EC50 [4]: 15.5 ± 0.665 µM

**Q.** What does the source list for `CC1=C(N2CC2)C(=O)C(C)=C(N2CC2)C1=O` [MeDZQ]?
**A.** T. brucei SI [1]: 1; EC50 [1, 12]: 0.698 ± 0.057 µM; EC50 [1, 15]: 0.74 ± 0.018 µM; Fold difference in EC50 Tbntr++ relative to control [5]: 115 ± 3 (0.16 ); EC50 [5]: 0.115 µM; T. cruzi SI [2]: 16; EC50 ([2]; Trypanosoma cruzi, 336 h): 0.055 ± 0.002 µM; L. major SI [3]: 2; EC50 [3]: 0.56 ± 0.139 µM; EC50 [9]: 0.885 ± 0.023 µM

**Q.** How did the EC50 [1, 13] turn out when `N[C@@H](Cc1ccc(N(CCCl)CCCl)cc1)C(=O)O` [Melphalan] was run?
**A.** The EC50 was 8.74 ± 0.2 µM.

**Q.** What about the “ratio (fold difference in EC50 between RH1^RC1 and wild type)” value [4] of the same compound?
**A.** The value was 1.2.

**Q.** What about the EC50 [4] of the same compound?
**A.** Its EC50 is 10.4 ± 0.23 µM.

**Q.** `CC1CCC(NC(=O)N(CCCl)N=O)CC1` (stereo not drawn) [Semustine] was tested. Which EC50 [1, 13] did it give?
**A.** Its EC50 is 15 ± 3.46 µM.

**Q.** What about the “ratio (fold difference in EC50 between RH1^RC1 and wild type)” value [4] of the same compound?
**A.** The value was 1.1.

**Q.** What about the EC50 [4] of the same compound?
**A.** Its EC50 is 17.1 ± 3.62 µM.

**Q.** For `O=C1C=C(N2CC2)C(=O)C(N2CC2)=C1N1CC1` [TZQ], which “T. brucei SI” value [1] is on record?
**A.** The value was under 1.

**Q.** And the EC50 [1, 12]?
**A.** The EC50 was 0.179 ± 0.001 µM.

**Q.** And the EC50 [1, 15]?
**A.** The EC50 was 0.225 ± 0.026 µM.

**Q.** And the EC50 ([1]; read-out: EC50 Control)?
**A.** Its EC50 is 0.253 ± 0.033 µM.

**Q.** What about the “Fold difference in EC50 Tbntr++ relative to control” value [5] of the same compound?
**A.** Its value is 60 ± 9 (0.27 ).

**Q.** What about the EC50 [5] of the same compound?
**A.** Its EC50 is 0.06 µM.

**Q.** And the EC50 [8]?
**A.** The EC50 was under 0.1 µM.

**Q.** What about the “Ratio of EC50 values ΔTbsnm1 / control” value [6] of the same compound?
**A.** Its value is 0.18.

**Q.** What about the “Susceptibility of Tbsnm1 null mutants relative to wild type / control (fold more susceptible)” value [6] of the same compound?
**A.** Its value is 2.7 fold.

**Q.** What about the EC50 [6] of the same compound?
**A.** Its EC50 is 0.046 ± 0.001 µM.

**Q.** What about the “T. cruzi SI” value [2] of the same compound?
**A.** Its value is under 33.

**Q.** And the “L. major SI” value [3]?
**A.** Its value is under 11.

**Q.** And the EC50 [9]?
**A.** Its EC50 is under 0.1 µM.

**Q.** And the “Fold increase in susceptibility of ΔTbsnm1 Tbntr++ versus wild type” value [10]?
**A.** The value was 15 fold.

**Q.** What about the “Fold difference in EC50 Tbcpr2++ relative to control” value [7] of the same compound?
**A.** The value was 284 ± 13 (1.26).

**Q.** What about the EC50 [7] of the same compound?
**A.** Its EC50 is 0.284 µM.

**Q.** Which results are given for `S=P(N1CC1)(N1CC1)N1CC1` [ThioTEPA, reference compound]?
**A.** EC50 [1, 13]: 39.4 ± 0.796 µM; EC50 [4]: 56.3 ± 1.96 µM

**Q.** What does the source list for `C1CN1c1nc(N2CC2)nc(N2CC2)n1` [Triethylenemelamine]?
**A.** EC50 [1, 13]: 2.4 ± 0.086 µM; ratio (fold difference in EC50 between RH1^RC1 and wild type) [4]: 1.1; EC50 [4]: 2.77 ± 0.064 µM

**Q.** How did the “Susceptibility of RH1 selected (RH1^RC) lines relative to wild type” value [4] turn out when `O=C(Cn1ccnc1[N+](=O)[O-])NCc1ccccc1` [benznidazole] was run?
**A.** The value was “cross‐resistance”.

**Q.** How did the “Cells in G1/S phase (1N1K)” value [11] turn out when phleomycin [reference compound] was run?
**A.** Its value is “approximately 80%”.
